What was measured:
[1] = target: Beta-lactamase TEM (Escherichia coli) (UniProt P62593); assay: Ratio of Kcat to Km of Escherichia coli TEM1 assessed as drug hydrolysis by spectrophotometry relative to cephaloridine; design: scale not given: the % may be the effect or the level left
[2] = target: T1, Beta-lactamase SHV-1 (Klebsiella pneumoniae) (UniProt P0AD64); assay: Activity of Klebsiella pneumoniae SHV1 assessed as drug hydrolysis by spectrophotometry relative to cephaloridine; design: scale not given: the % may be the effect or the level left
T1 sequence (whole entry): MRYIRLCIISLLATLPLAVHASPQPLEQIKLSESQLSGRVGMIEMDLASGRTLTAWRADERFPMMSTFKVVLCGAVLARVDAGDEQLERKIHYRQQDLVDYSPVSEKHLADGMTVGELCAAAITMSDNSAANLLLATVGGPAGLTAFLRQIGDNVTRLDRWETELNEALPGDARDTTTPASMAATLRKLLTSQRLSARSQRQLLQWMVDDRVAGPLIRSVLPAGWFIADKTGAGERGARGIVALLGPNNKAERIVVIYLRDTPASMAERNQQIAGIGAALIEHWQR

[3] = target: T1, Beta-lactamase SHV-1 (Klebsiella pneumoniae); assay: Ratio of Kcat to Km of Klebsiella pneumoniae SHV1 assessed as drug hydrolysis by spectrophotometry relative to cephaloridine; design: scale not given: the % may be the effect or the level left
[4] = target: Beta-lactamase CTX-M (Escherichia coli) (UniProt Q9EXV5); assay: Activity of Escherichia coli CTX-M-15 assessed as drug hydrolysis by spectrophotometry relative to cephaloridine; design: scale not given: the % may be the effect or the level left
[5] = target: Beta-lactamase CTX-M (Escherichia coli) (UniProt Q9EXV5); assay: Ratio of Kcat to Km of Escherichia coli CTX-M-15 assessed as drug hydrolysis by spectrophotometry relative to cephaloridine; design: scale not given: the % may be the effect or the level left
[6] = target: T2, Beta-lactamase (Klebsiella oxytoca) (UniProt Q8RT60); assay: Activity of Klebsiella oxytoca beta-lactamase K1 assessed as drug hydrolysis by spectrophotometry relative to cephaloridine; design: scale not given: the % may be the effect or the level left
T2 sequence (whole entry): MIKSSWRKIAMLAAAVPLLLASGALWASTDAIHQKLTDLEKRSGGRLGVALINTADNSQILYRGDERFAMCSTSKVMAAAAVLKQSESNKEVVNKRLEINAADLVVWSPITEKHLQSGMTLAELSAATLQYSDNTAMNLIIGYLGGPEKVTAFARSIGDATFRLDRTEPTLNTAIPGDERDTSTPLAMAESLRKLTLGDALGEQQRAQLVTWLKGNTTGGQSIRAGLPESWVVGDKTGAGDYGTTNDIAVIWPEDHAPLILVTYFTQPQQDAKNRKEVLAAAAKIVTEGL

[7] = target: T2, Beta-lactamase (Klebsiella oxytoca); assay: Ratio of Kcat to Km of Klebsiella oxytoca beta-lactamase K1 assessed as drug hydrolysis by spectrophotometry relative to cephaloridine; design: scale not given: the % may be the effect or the level left
Klebsiella pneumoniae [8] = assay: Activity of Klebsiella pneumoniae TEM26 assessed as drug hydrolysis by spectrophotometry
Klebsiella pneumoniae [9] = assay: Activity of Klebsiella pneumoniae TEM26 assessed as drug hydrolysis by spectrophotometry relative to cephaloridine; design: scale not given: the % may be the effect or the level left
Klebsiella pneumoniae [10] = assay: Ratio of Kcat to Km of Klebsiella pneumoniae TEM26 assessed as drug hydrolysis by spectrophotometry
Klebsiella pneumoniae [11] = assay: Ratio of Kcat to Km of Klebsiella pneumoniae TEM26 assessed as drug hydrolysis by spectrophotometry relative to cephaloridine; design: scale not given: the % may be the effect or the level left
[12] = target: T3, Carbapenem-hydrolyzing beta-lactamase SME-3 (Serratia marcescens) (UniProt Q6PRG8); assay: Activity of Serratia marcescens SME3 assessed as drug hydrolysis by spectrophotometry relative to cephaloridine; design: scale not given: the % may be the effect or the level left
T3 sequence (whole entry): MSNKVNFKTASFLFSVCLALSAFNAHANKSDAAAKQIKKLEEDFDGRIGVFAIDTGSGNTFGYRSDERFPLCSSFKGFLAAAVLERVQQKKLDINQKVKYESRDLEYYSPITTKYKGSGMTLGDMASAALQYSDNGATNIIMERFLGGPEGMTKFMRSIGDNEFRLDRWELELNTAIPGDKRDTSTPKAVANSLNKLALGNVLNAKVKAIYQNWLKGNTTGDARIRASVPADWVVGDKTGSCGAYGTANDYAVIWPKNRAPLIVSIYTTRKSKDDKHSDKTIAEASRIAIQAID

[13] = target: T3, Carbapenem-hydrolyzing beta-lactamase SME-3 (Serratia marcescens); assay: Ratio of Kcat to Km of Serratia marcescens SME3 assessed as drug hydrolysis by spectrophotometry relative to cephaloridine; design: scale not given: the % may be the effect or the level left
[14] = target: Beta-lactamase VIM-2 (Pseudomonas aeruginosa) (UniProt Q9K2N0); assay: Activity of Pseudomonas aeruginosa VIM2 assessed as drug hydrolysis by spectrophotometry relative to cephaloridine; design: scale not given: the % may be the effect or the level left
[15] = target: Metallo beta-lactamase (Pseudomonas aeruginosa) (UniProt Q6TUJ4); assay: Ratio of Kcat to Km of Pseudomonas aeruginosa IMP1 assessed as drug hydrolysis by spectrophotometry relative to cephaloridine; design: scale not given: the % may be the effect or the level left
Chain of Metallo beta-lactamase (Pseudomonas aeruginosa) (Q6TUJ4 as listed by the source): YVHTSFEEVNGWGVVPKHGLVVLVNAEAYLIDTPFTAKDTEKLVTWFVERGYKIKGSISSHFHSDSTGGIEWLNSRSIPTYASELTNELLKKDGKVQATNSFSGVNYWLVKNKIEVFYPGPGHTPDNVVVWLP

[16] = target: Beta-lactamase VIM-2 (Pseudomonas aeruginosa) (UniProt Q9K2N0); assay: Ratio of Kcat to Km of Pseudomonas aeruginosa VIM2 assessed as drug hydrolysis by spectrophotometry relative to cephaloridine; design: scale not given: the % may be the effect or the level left
[17] = target: Beta-lactamase (Morganella morganii) (UniProt P94958); assay: Activity of Morganella morganii AmpC assessed as drug hydrolysis by spectrophotometry relative to cephaloridine; design: scale not given: the % may be the effect or the level left
[18] = target: Beta-lactamase TEM (Escherichia coli) (UniProt P62593); assay: Activity of Escherichia coli TEM1 assessed as drug hydrolysis by spectrophotometry relative to cephaloridine; design: scale not given: the % may be the effect or the level left
[19] = target: Beta-lactamase (Staphylococcus aureus) (UniProt P00807); assay: Ratio of Kcat to Km of Staphylococcus aureus betalactamase PC1 assessed as drug hydrolysis by spectrophotometry relative to cephaloridine; design: scale not given: the % may be the effect or the level left
Chain of Beta-lactamase (Staphylococcus aureus) (P00807 whole entry): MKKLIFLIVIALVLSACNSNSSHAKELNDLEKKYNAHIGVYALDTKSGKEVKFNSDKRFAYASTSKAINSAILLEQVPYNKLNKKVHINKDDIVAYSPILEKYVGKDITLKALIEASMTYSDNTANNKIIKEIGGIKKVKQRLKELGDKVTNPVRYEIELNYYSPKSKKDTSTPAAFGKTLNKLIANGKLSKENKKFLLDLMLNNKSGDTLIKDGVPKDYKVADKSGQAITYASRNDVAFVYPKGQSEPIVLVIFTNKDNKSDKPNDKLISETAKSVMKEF

[20] = target: Beta-lactamase (Staphylococcus aureus) (UniProt P00807); assay: Activity of Staphylococcus aureus betalactamase PC1 assessed as drug hydrolysis by spectrophotometry relative to cephaloridine; design: scale not given: the % may be the effect or the level left
[21] = target: Beta-lactamase (Morganella morganii) (UniProt P94958); assay: Ratio of Kcat to Km of Morganella morganii AmpC assessed as drug hydrolysis by spectrophotometry relative to cephaloridine; design: scale not given: the % may be the effect or the level left
[22] = target: T4, Beta-lactamase (Providencia stuartii) (UniProt O69773); assay: Activity of Providencia stuartii AmpC assessed as drug hydrolysis by spectrophotometry relative to cephaloridine; design: scale not given: the % may be the effect or the level left
T4 sequence (whole entry): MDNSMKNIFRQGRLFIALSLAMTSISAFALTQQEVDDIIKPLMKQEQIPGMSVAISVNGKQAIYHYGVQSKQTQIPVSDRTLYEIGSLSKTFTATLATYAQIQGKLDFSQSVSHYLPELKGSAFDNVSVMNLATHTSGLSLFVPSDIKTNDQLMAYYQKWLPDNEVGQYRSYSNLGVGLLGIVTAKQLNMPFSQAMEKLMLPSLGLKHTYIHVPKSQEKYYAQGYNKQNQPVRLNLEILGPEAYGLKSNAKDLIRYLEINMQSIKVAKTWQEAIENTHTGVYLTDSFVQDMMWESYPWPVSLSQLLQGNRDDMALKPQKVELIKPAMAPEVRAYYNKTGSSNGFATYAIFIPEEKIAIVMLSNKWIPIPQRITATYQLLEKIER

[23] = target: T4, Beta-lactamase (Providencia stuartii); assay: Ratio of Kcat to Km of Providencia stuartii AmpC assessed as drug hydrolysis by spectrophotometry relative to cephaloridine; design: scale not given: the % may be the effect or the level left
[24] = target: Beta-lactamase (Pseudomonas aeruginosa (strain ATCC 15692 / PAO1 / 1C / PRS 101 / LMG12228)) (UniProt P24735); assay: Activity of Pseudomonas aeruginosa 4352 AmpC assessed as drug hydrolysis by spectrophotometry relative to cephaloridine; design: scale not given: the % may be the effect or the level left
Chain of Beta-lactamase (Pseudomonas aeruginosa (strain ATCC 15692 / PAO1 / 1C / PRS 101 / LMG12228)) (P24735 27-397 limits assumed): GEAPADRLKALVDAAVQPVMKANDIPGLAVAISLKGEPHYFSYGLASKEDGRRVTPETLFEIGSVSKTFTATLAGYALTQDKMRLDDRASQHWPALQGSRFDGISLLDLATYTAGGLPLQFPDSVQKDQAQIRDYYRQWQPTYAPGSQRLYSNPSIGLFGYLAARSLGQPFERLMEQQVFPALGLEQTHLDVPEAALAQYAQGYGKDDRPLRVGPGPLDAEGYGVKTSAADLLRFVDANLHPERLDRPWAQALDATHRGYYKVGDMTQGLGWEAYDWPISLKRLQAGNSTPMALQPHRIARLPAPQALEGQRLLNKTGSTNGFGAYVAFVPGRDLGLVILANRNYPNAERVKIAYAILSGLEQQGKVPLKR

[25] = target: Beta-lactamase (Pseudomonas aeruginosa (strain ATCC 15692 / PAO1 / 1C / PRS 101 / LMG12228)) (UniProt P24735); assay: Ratio of Kcat to Km of Pseudomonas aeruginosa 4352 AmpC assessed as drug hydrolysis by spectrophotometry relative to cephaloridine; design: scale not given: the % may be the effect or the level left
[26] = target: Beta-lactamase (Pseudomonas aeruginosa (strain ATCC 15692 / PAO1 / 1C / PRS 101 / LMG12228)) (UniProt P24735); assay: Activity of Pseudomonas aeruginosa 18SH AmpC assessed as drug hydrolysis by spectrophotometry relative to cephaloridine; design: scale not given: the % may be the effect or the level left
[27] = target: Beta-lactamase (Pseudomonas aeruginosa (strain ATCC 15692 / PAO1 / 1C / PRS 101 / LMG12228)) (UniProt P24735); assay: Ratio of Kcat to Km of Pseudomonas aeruginosa 18SH AmpC assessed as drug hydrolysis by spectrophotometry relative to cephaloridine; design: scale not given: the % may be the effect or the level left
[28] = target: Beta-lactamase (Pseudomonas aeruginosa (strain ATCC 15692 / PAO1 / 1C / PRS 101 / LMG12228)) (UniProt P24735); assay: Activity of Pseudomonas aeruginosa MK-1184 AmpC assessed as drug hydrolysis by spectrophotometry relative to cephaloridine; design: scale not given: the % may be the effect or the level left
[29] = target: Beta-lactamase (Pseudomonas aeruginosa (strain ATCC 15692 / PAO1 / 1C / PRS 101 / LMG12228)) (UniProt P24735); assay: Ratio of Kcat to Km of Pseudomonas aeruginosa MK-1184 AmpC assessed as drug hydrolysis by spectrophotometry relative to cephaloridine; design: scale not given: the % may be the effect or the level left
[30] = target: Beta-lactamase (Serratia marcescens) (UniProt P18539); assay: Activity of Serratia marcescens AmpC assessed as drug hydrolysis by spectrophotometry relative to cephaloridine; design: scale not given: the % may be the effect or the level left
Chain of Beta-lactamase (Serratia marcescens) (P18539 whole entry): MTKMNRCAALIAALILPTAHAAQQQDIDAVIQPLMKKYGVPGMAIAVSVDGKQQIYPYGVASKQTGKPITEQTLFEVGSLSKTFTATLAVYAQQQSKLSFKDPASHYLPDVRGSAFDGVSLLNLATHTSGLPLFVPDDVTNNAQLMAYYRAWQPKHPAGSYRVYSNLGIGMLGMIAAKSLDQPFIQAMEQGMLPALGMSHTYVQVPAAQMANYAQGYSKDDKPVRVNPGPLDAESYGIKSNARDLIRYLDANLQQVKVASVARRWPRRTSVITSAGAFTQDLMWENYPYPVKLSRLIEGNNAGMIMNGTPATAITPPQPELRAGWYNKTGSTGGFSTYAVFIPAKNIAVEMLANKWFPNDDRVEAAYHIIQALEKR

[31] = target: Beta-lactamase (Serratia marcescens) (UniProt P18539); assay: Ratio of Kcat to Km of Serratia marcescens AmpC assessed as drug hydrolysis by spectrophotometry relative to cephaloridine; design: scale not given: the % may be the effect or the level left
[32] = target: Beta-lactamase (Pseudomonas aeruginosa (strain ATCC 15692 / PAO1 / 1C / PRS 101 / LMG12228)) (UniProt P24735); assay: Activity of Pseudomonas aeruginosa AmpC assessed as drug hydrolysis by spectrophotometry relative to cephaloridine; design: scale not given: the % may be the effect or the level left
[33] = target: Beta-lactamase (Pseudomonas aeruginosa (strain ATCC 15692 / PAO1 / 1C / PRS 101 / LMG12228)) (UniProt P24735); assay: Ratio of Kcat to Km of Pseudomonas aeruginosa AmpC assessed as drug hydrolysis by spectrophotometry relative to cephaloridine; design: scale not given: the % may be the effect or the level left

Chain of Beta-lactamase TEM (Escherichia coli) (P62593 whole entry): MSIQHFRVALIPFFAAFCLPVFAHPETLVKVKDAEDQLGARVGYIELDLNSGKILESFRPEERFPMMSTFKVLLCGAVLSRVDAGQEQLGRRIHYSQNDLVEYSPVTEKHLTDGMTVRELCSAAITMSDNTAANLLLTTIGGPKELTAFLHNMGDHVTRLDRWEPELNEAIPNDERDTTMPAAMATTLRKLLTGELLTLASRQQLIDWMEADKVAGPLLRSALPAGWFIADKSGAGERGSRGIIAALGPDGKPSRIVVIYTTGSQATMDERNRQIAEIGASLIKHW

| Compound | Activity [1] | Activity [2] | Activity [3] | Activity [4] | Activity [5] | Activity [6] | Activity [7] | Km (Klebsiella pneumoniae [8]) | kcat (Klebsiella pneumoniae [8]) | Activity (Klebsiella pneumoniae [9]) | kcat/Km (Klebsiella pneumoniae [10]) | Activity (Klebsiella pneumoniae [11]) | Activity [12] | Activity [13] | Activity [17] | Activity [21] | Activity [24] | Activity [25] | Activity [30] | Activity [31] | other results |
| --- | --- | --- | --- | --- | --- | --- | --- | --- | --- | --- | --- | --- | --- | --- | --- | --- | --- | --- | --- | --- | --- |
| CO/N=C(\C(=O)N[C@@H]1C(=O)N2C(C(=O)[O-])=C(C[N+]3(C)CCCC3)CS[C@H]12)c1csc(N)n1 | 0.38% | 0.42% | 0.81% | 24% | 5.1% | 8.5% | 0.84% | 65 µM | 20 s⁻¹ | 54% | 310000 M⁻¹ s⁻¹ | 55% | 0.13% | 0.18% | < 0.047% | < 0.018% | < 0.012% | 0.011% | < 0.028% | < 0.022% | Activity [14]: 0.32%; Activity [15]: 200%; Activity [16]: 4.1%; Activity [18]: 0.45%; Activity [19]: 2.5%; Activity [20]: 1.4%; Activity [22]: 0.57%; Activity [23]: 0.66%; Activity [26]: < 0.1%; Activity [27]: 0.5%; Activity [28]: 1.5%; Activity [29]: 0.78%; Activity [32]: 19%; Activity [33]: 1.6% |
| CC(C)(O/N=C(\C(=O)N[C@@H]1C(=O)N2C(C(=O)[O-])=C(C[n+]3ccccc3)CS[C@H]12)c1csc(N)n1)C(=O)O | 0.00067% | 0.0026% | 0.00084% | 2.3% | 0.37% | 0.0026% | 0.0018% | 130 µM | 95 s⁻¹ | 260% | 730000 M⁻¹ s⁻¹ | 130% | 0.013% | 0.031% | < 0.14% | < 2.5% | < 0.01% | 0.42% | < 0.0025% | < 0.0028% | Activity [14]: 0.19%; Activity [15]: 120%; Activity [16]: 1.7%; Activity [18]: 0.00023%; Activity [19]: 0.92%; Activity [20]: 0.25%; Activity [22]: 0.036%; Activity [23]: 1.3%; Activity [26]: < 0.1%; Activity [27]: 0.83%; Activity [28]: 3.1%; Activity [29]: 5.3%; Activity [32]: < 0.059% |
| CO/N=C(\C(=O)N[C@@H]1C(=O)N2C(C(=O)O)=C(COC(C)=O)CS[C@H]12)c1csc(N)n1 |  |  |  | 95% | 140% | 13% | 2.3% | 15 µM | 2.9 s⁻¹ | 7.8% | 190000 M⁻¹ s⁻¹ | 34% |  |  |  |  |  |  |  |  |  |
| O=C(Cc1cccs1)N[C@@H]1C(=O)N2C(C(=O)O)=C(/C=C/c3ccc([N+](=O)[O-])cc3[N+](=O)[O-])CS[C@H]12 |  |  |  |  |  |  |  |  |  |  |  |  |  |  | 160% | 1400% | 68% | 1800% | 42% | 19% |  |
